Reference: patent US12187721B2, “Protein tyrosine phosphatase inhibitors” (Array BioPharma Inc., priority 2018, dated 2025)
pIC50: −log10 of the molar value.

Target: T1, full-length SHP2 (His6-tagged SHP2(2-527)) (Homo sapiens, UniProt Q06124)
T1 construct: His6-tagged SHP2(2-527); His6; made in house; host or cells: E. coli
Experiment: SHP2 Enzymatic Assay (fluorescence intensity kinetic assay, DiFMUP hydrolysis)
Format: biochemical
Details: not given
Outline: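 1 nM His6-SHP2(2-527), activated by 1 μM bis-phosphopeptide, hydrolysed 50 μM DiFMUP in 25 mM HEPES pH 7.4 with 1 mM DTT, 50 mM KCl and 2% DMSO. DiFMU fluorescence (Ex 355/Em 460 nm) was read kinetically for 15 min at ambient temperature.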

T1 sequence (Q06124 2-527): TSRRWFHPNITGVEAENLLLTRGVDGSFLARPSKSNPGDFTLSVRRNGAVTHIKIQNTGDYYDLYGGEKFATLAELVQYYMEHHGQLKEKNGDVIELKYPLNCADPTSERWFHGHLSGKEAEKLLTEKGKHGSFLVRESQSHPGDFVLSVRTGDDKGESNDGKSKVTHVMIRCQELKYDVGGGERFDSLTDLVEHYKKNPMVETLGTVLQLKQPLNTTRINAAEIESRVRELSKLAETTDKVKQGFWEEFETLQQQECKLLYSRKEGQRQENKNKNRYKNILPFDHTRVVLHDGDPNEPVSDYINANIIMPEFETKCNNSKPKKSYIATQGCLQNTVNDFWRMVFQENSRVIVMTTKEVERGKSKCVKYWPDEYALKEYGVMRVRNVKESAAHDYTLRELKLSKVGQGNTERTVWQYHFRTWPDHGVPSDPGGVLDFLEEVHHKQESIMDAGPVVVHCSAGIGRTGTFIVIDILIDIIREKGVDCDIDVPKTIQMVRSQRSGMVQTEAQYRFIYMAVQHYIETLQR

In order of falling pIC50:
1. CC1(N)CCN(c2cnc3nc(-c4cccc(F)c4Cl)ccc3n2)CC1 [Example 152, 1-(6-(2-chloro-3-fluorophenyl)pyrido[2,3-b]pyrazin-2-yl)-4-methylpiperidin-4-amine]  7.52
2. Cc1nccc(Sc2ccc3nc(N4CCC5(CC4)Cc4cc(O)ccc4[C@H]5N)cnc3n2)c1Cl [Example 156, (S)-1-amino-1′-(6-((3-chloro-2-methylpyridin-4-yl)thio)pyrido[2,3-b]pyrazin-2-yl)-1,3-dihydrospiro[indene-2,4′-piperidin]-5-ol]  7.49
3. N[C@@H]1c2ccccc2CC12CCN(c1cnc3nc(Sc4cccnc4C(F)(F)F)ccc3n1)CC2 [Example 162, (S)-1′-(6-((2-(trifluoromethyl)pyridin-3-yl)thio)pyrido[2,3-b]pyrazin-2-yl)-1,3-dihydrospiro[indene-2,4′-piperidin]-1-amine]  7.41
4. COc1cccc2c1CC1(CCN(c3cnc4nc(Sc5ccnc(N)c5Cl)ccc4n3)CC1)[C@@H]2N [Example 155]  7.35
5. CNc1nccc(Sc2ccc3nc(N4CCC(C)(N)CC4)cnc3n2)c1Cl [Example 161, 4-((2-(4-amino-4-methylpiperidin-1-yl)pyrido[2,3-b]pyrazin-6-yl)thio)-3-chloro-N-methylpyridin-2-amine]  7.35
6. Nc1nccc(Sc2ccc3nc(N4CCC5(CC4)Cc4c(Cl)cccc4[C@H]5N)cnc3n2)c1Cl [Example 159, (S)-1′-(6-((2-amino-3-chloropyridin-4-yl)thio)pyrido[2,3-b]pyrazin-2-yl)-4-chloro-1,3-dihydrospiro[indene-2,4′-piperidin]-1-amine]  7.30
7. Nc1nccc(Sc2ccc3nc(N4CCC5(CC4)Cc4ncccc4[C@@H]5N)cnc3n2)c1Cl [Example 167, (R)-1′-(6-((2-amino-3-chloropyridin-4-yl)thio)pyrido[2,3-b]pyrazin-2-yl)-5,7-dihydrospiro[cyclopenta[b]pyridine-6,4′-piperidin]-5-amine]  7.30
8. Cc1cccc2c1CC1(CCN(c3cnc4nc(Sc5ccnc(N)c5Cl)ccc4n3)CC1)[C@H]2N [Example 168, (R)-1′-(6-((2-amino-3-chloropyridin-4-yl)thio)pyrido[2,3-b]pyrazin-2-yl)-4-methyl-1,3-dihydrospiro[indene-2,4′-piperidin]-1-amine]  7.27
9. COc1nc(N)cc(Sc2ccc3nc(N4CCC5(CC4)Cc4ccccc4[C@H]5N)cnc3n2)c1Cl [Example 171, (S)-1′-(6-((6-amino-3-chloro-2-methoxypyridin-4-yl)thio)pyrido[2,3-b]pyrazin-2-yl)-1,3-dihydrospiro[indene-2,4′-piperidin]-1-amine]  7.25
10. Nc1nccc(Sc2ccc3nc(N4CCC5(CC4)Cc4cc(Cl)ccc4[C@@H]5N)cnc3n2)c1Cl [Example 170, (R)-1′-(6-((2-amino-3-chloropyridin-4-yl)thio)pyrido[2,3-b]pyrazin-2-yl)-5-chloro-1,3-dihydrospiro[indene-2,4′-piperidin]-1-amine]  7.21
11. Nc1nccc(Sc2ccc3nc(N4CCC(N)(Cc5ccccc5)CC4)cnc3n2)c1Cl [Example 181, 4-((2-(4-amino-4-benzylpiperidin-1-yl)pyrido[2,3-b]pyrazin-6-yl)thio)-3-chloropyridin-2-amine]  7.12
12. Cc1ccc2c(c1)[C@H](N)C1(CCN(c3cnc4nc(Sc5ccnc(N)c5Cl)ccc4n3)CC1)C2 [Example 179, (R)-1′-(6-((2-amino-3-chloropyridin-4-yl)thio)pyrido[2,3-b]pyrazin-2-yl)-6-methyl-1,3-dihydrospiro[indene-2,4′-piperidin]-1-amine]  7.10
13. COCCC1(N)CCN(c2cnc3nc(Sc4ccnc(N)c4Cl)ccc3n2)CC1 [Example 182, 4-((2-(4-amino-4-(2-methoxyethyl)piperidin-1-yl)pyrido[2,3-b]pyrazin-6-yl)thio)-3-chloropyridin-2-amine]  7.10
14. Nc1nccc(Sc2ccc3nc(N4CCC5(CC4)Cc4cccnc4C5N)cnc3n2)c1Cl (centres unmarked) [Example 158, 1′-(6-((2-amino-3-chloropyridin-4-yl)thio)pyrido[2,3-b]pyrazin-2-yl)-5,7-dihydrospiro[cyclopenta[b]pyridine-6,4′-piperidin]-7-amine]  6.97
15. C[C@@H]1OCC2(CCN(c3cnc4nc(Sc5ccc(N)nc5C(F)(F)F)ccc4n3)CC2)[C@@H]1N [Example 176, (3S,4S)-8-(6-((6-amino-2-(trifluoromethyl)pyridin-3-yl)thio)pyrido[2,3-b]pyrazin-2-yl)-3-methyl-2-oxa-8-azaspiro[4.5]decan-4-amine]  6.96
16. N#Cc1ccc2ncc(Sc3ccc4nc(N5CCC6(CC5)Cc5ccccc5[C@H]6N)cnc4n3)n2c1 [Example 172, (S)-3-((2-(1-amino-1,3-dihydrospiro[indene-2,4′-piperidin]-1′-yl)pyrido[2,3-b]pyrazin-6-yl)thio)imidazo[1,2-a]pyridine-6-carbonitrile]  6.95
17. COc1c(Sc2ccc3nc(N4CCC5(CC4)CO[C@@H](C)[C@H]5N)cnc3n2)ccnc1N [Example 153, (3S,4S)-8-(6-((2-amino-3-methoxypyridin-4-yl)thio)pyrido[2,3-b]pyrazin-2-yl)-3-methyl-2-oxa-8-azaspiro [4.5] decan-4-amine]  6.79
18. Nc1nccc(Sc2ccc3nc(N4CC5(Cc6ccccc6[C@@H]5N)C4)cnc3n2)c1Cl [Example 164, (S)-1-(6-((2-amino-3-chloropyridin-4-yl)thio)pyrido[2,3-b]pyrazin-2-yl)-1′,3′-dihydrospiro[azetidine-3,2′-inden]-1′-amine]  6.69
19. C[C@@H]1OCC2(CCN(c3cnc4nc(Sc5ccnc(Cl)c5Cl)ccc4n3)CC2)[C@@H]1N [Example 177, (3S,4S)-8-(6-((2,3-dichloropyridin-4-yl)thio)pyrido[2,3-b]pyrazin-2-yl)-3-methyl-2-oxa-8-azaspiro[4.5]decan-4-amine]  6.66
20. CCCC1(N)CCN(c2cnc3nc(Sc4ccnc(N)c4Cl)ccc3n2)CC1 [Example 173, 4-((2-(4-amino-4-propylpiperidin-1-yl)pyrido[2,3-b]pyrazin-6-yl)thio)-3-chloropyridin-2-amine]  6.63
21. C[C@@H]1OCC2(CCN(c3cnc4nc(Sc5ccncc5Cl)ccc4n3)CC2)[C@@H]1N [Example 187, (3S,4S)-8-(6-((3-chloropyridin-4-yl)thio)pyrido[2,3-b]pyrazin-2-yl)-3-methyl-2-oxa-8-azaspiro[4.5]decan-4-amine]  6.58
22. COCCNc1nccc(Sc2ccc3nc(N4CCC5(CC4)CO[C@@H](C)[C@H]5N)cnc3n2)c1Cl [Example 183, (3S,4S)-8-(6-((3-chloro-2-((2-methoxyethyl)amino)pyridin-4-yl)thio)pyrido[2,3-b]pyrazin-2-yl)-3-methyl-2-oxa-8-azaspiro[4.5]decan-4-amine]  6.57
23. Nc1nccc(Sc2ccc3nc(N4CCC(N)(Cc5ccccn5)CC4)cnc3n2)c1Cl [Example 180, 4-((2-(4-amino-4-(pyridin-2-ylmethyl)piperidin-1-yl)pyrido[2,3-b]pyrazin-6-yl)thio)-3-chloropyridin-2-amine]  6.56
24. C[C@@H]1OCC2(CCN(c3cnc4nc(Sc5ccnc6c5CCC6O)ccc4n3)CC2)[C@@H]1N (stereo partly drawn) [Example 157, 4-((2-((3S,4S)-4-amino-3-methyl-2-oxa-8-azaspiro[4.5]decan-8-yl)pyrido[2,3-b]pyrazin-6-yl)thio)-6,7-dihydro-5H-cyclopenta[b]pyridin-7-ol]  6.55
25. Cc1nccc(Sc2ccc3nc(N4CCC5(CC4)CO[C@@H](C)[C@H]5N)cnc3n2)c1C [Example 174, (3S,4S)-8-(6-((2,3-dimethylpyridin-4-yl)thio)pyrido[2,3-b]pyrazin-2-yl)-3-methyl-2-oxa-8-azaspiro[4.5]decan-4-amine]  6.47
26. C[C@@H]1OCC2(CCN(c3cnc4nc(Sc5ccnc(NC6CC6)c5Cl)ccc4n3)CC2)[C@@H]1N [Example 184, (3S,4S)-8-(6-((3-chloro-2-(cyclopropylamino)pyridin-4-yl)thio)pyrido[2,3-b]pyrazin-2-yl)-3-methyl-2-oxa-8-azaspiro[4.5]decan-4-amine]  6.38
27. Nc1nccc(Sc2ccc3nc(N4CCCC45CC(N)C5)cnc3n2)c1Cl (centres unmarked) [Example 154, 5-(6-((2-amino-3-chloropyridin-4-yl)thio)pyrido[2,3-b]pyrazin-2-yl)-5-azaspiro[3.4]octan-2-amine]  5.92
28. C[C@@H]1OCC2(CCN(c3cnc4nc(Sc5ccnc(N)c5F)ccc4n3)CC2)[C@@H]1N [Example 175, (3S,4S)-8-(6-((2-amino-3-fluoropyridin-4-yl)thio)pyrido[2,3-b]pyrazin-2-yl)-3-methyl-2-oxa-8-azaspiro[4.5]decan-4-amine]  5.91
29. C[C@@H]1OCC2(CCN(c3cnc4nc(Sc5ccncc5F)ccc4n3)CC2)[C@@H]1N [Example 186, (3S,4S)-8-(6-((3-fluoropyridin-4-yl)thio)pyrido[2,3-b]pyrazin-2-yl)-3-methyl-2-oxa-8-azaspiro[4.5]decan-4-amine]  5.64
30. Nc1nccc(Sc2ccc3nc(N4CCC5(CC4)c4ccccc4[C@@H]5N)cnc3n2)c1Cl [Example 166, (R)-1′-(6-((2-amino-3-chloropyridin-4-yl)thio)pyrido[2,3-b]pyrazin-2-yl)spiro[bicyclo[4.2.0]octane-7,4′-piperidine]-1(6),2,4-trien-8-amine]  5.40
31. Nc1nccc(Sc2ccc3nc(N4CCC5(CC4)c4ccccc4[C@H]5N)cnc3n2)c1Cl [Example 165, (S)-1′-(6-((2-amino-3-chloropyridin-4-yl)thio)pyrido[2,3-b]pyrazin-2-yl)spiro[bicyclo[4.2.0]octane-7,4′-piperidine]-1(6),2,4-trien-8-amine]  4.80

Same assay, conditions: full-length SHP2 with 1 μM activating peptide, 50 μM DiFMUP; single assay or mean of multiple assays; read-out: Biological Example 1 IC50

With `Nc1nccc(Sc2ccc3nc(N4CCC5(CC4)C[C@@H](O)C[C@H]5N)cnc3n2)c1Cl` [Example 160, (2R,4R)-4-amino-8-(6-((2-amino-3-chloropyridin-4-yl)thio)pyrido[2,3-b]pyrazin-2-yl)-8-azaspiro[4.5]decan-2-ol] the pIC50 was 7.22.
